# From US7247444B2, “Use of interleukin-19 to treat cervical cancer” (ZymoGenetics, Inc., priority 2002, dated 2007)
# B1: IL-19: interleukin-19 polypeptide, SEQ ID NO:2; mature secreted form from amino acid 23 (His) to 177 (Ala) (protein, listed as Homo sapiens)
# chain: MKLQCVSLWLLGTILILCSVDNHGLRRCLISTDMHHIEESFQEIKRAIQAKDTFPNVTILSTLETLQIIKPLDVCCVTKNLLAFYVDRVFKDHQEPNPKILRKISSIANSFLYMQKTLRQCQEQRQCHCRQEATNATRVIHDNYDQLEVHAAAIKSLGELDVFLAWINKNHEVMSSA
# System: HeLa299
# Experiment: HeLa299 cytoxicity assay (MTT readout)
# Assay type: cell-based
# Details: HeLa299 cells, 72 hrs, complete growth media
# Experimental: We tested IL-19 in a HeLa299 cytoxicity assay to measure the ability of IL-19 to prevent cells from growing during normal growth conditions. We used MTT reagent (Promega, Madison, USA) as our detection and readout for this cell inhibition assay. Procedure of a cytoxicity assay: • Day 1—Plate cells out in complete growth media (with serum) at 5000 cells/well in a 96 well format and let them incubate overnight at 37 degrees and 5% CO2. • Day 2—Dump off media and add a dose response of appropriate ligands in complete growth media (IL-19 at 10, 100, and 1000 ng/ml.), along with a positive control retinoic acid (100 uM) in complete growth media, while leaving some wells in complete growth media as controls of how the cells normally grow under normal conditions. Put the cells in incubator and let the assay go for 72 hrs. • Day 5—Add 15 ul/well of MTT reagent, let cells inc. for 4 hrs., then add 100 ul of stop solution, let cells inc. for an additional 1 hr., then read the plate on a multilabel counter (Victor2, PerkinElmer Life Sciences Inc., Boston). The MTT protocol will give you two readings, one at a 650 wavelength (background) and one at a 572 wavelength. Subtract the 650 reading from the 572 reading to get your actual output. These numbers are averaged and converted to a % inhibition value.
Molecule,inhibition at 100 µM (retinoic acid 100 uM),"maximal inhibition of growth (IL-19 dose response 10, 100, and 1000 ng/ml)"
"CC1=C(/C=C/C(C)=C/C=C/C(C)=C/C(=O)O)C(C)(C)CCC1 [Retnoic Acid, retinoic acid]",53%,
B1,,38%
